Source: patent US9439436B2, “Use of aryl carbamates in agriculture and other plant-related areas” (North Carolina State University, priority 2010, dated 2016)

Columns and labels:
bacteria = conditions: literature statement; cited from earlier work
[1] = system: multi-drug resistant Acinetobacter baumannii (MDRAB); assay: biofilm inhibition, crystal violet reporter assay; format: cell-based
[2] = system: methicillin-resistant S. aureus (MRSA); assay: biofilm inhibition, crystal violet reporter assay; format: cell-based
E. coli = assay: biofilm inhibition, crystal violet reporter assay; format: cell-based
S. epidermidis = assay: biofilm inhibition, crystal violet reporter assay; format: cell-based
R. salexigens [3] = conditions: reported by Yamada et al.; cited from earlier work
R. salexigens [4] = assay: biofilm inhibition, crystal violet reporter assay; format: cell-based, Rhodospirillum salexigens
[5] = system: vancomycin-resistant Enterococcus faecium (VRE); assay: biofilm inhibition, crystal violet reporter assay; format: cell-based
[6] = system: S. aureus strains 29213, 29740, and 25923; assay: testing of the library on S. aureus strains; format: cell-based; conditions: refers to Tables 2 and 3, not given

Row | Structure (SMILES) | melting point | further results
1 | CC(C)CCC[C@@H](C)C1CCC2[C@@H]3CC=C4C[C@@H](OC(=O)NCCc5ccc(Br)cc5)CC[C@]4(C)[C@H]3CC[C@]12C (some centres unmarked) | 142 to 145 °C | 
2 | CC(C)CCC[C@@H](C)C1CCC2[C@@H]3CC=C4C[C@@H](OC(=O)NCCc5ccccc5)CC[C@]4(C)[C@H]3CC[C@]12C (some centres unmarked) | 74 to 76 °C | 
3 | CC(C)CCC[C@@H](C)C1CCC2[C@@H]3CC=C4C[C@@H](OC(=O)NC5Cc6ccccc6C5)CC[C@]4(C)[C@H]3CC[C@]12C (some centres unmarked) | 114 to 116 °C | 
4 | CC(C)CCC[C@@H](C)C1CCC2[C@@H]3CC=C4C[C@@H](OC(=O)NCCCc5ccccc5)CC[C@]4(C)[C@H]3CC[C@]12C (some centres unmarked) | 87 to 89 °C | 
5 | CC(C)CCC[C@@H](C)C1CCC2[C@@H]3CC=C4C[C@@H](OC(=O)NCCn5nccn5)CC[C@]4(C)[C@H]3CC[C@]12C (some centres unmarked) | 135 to 139 °C | 
6 | CC(C)CCC[C@@H](C)C1CCC2[C@@H]3CC=C4C[C@@H](OC(=O)N5CCc6ccccc65)CC[C@]4(C)[C@H]3CC[C@]12C (some centres unmarked) | 157 to 159 °C | 
7 | CC(C)CCC[C@@H](C)C1CCC2[C@@H]3CC=C4C[C@@H](OC(=O)N5CCCc6ccccc65)CC[C@]4(C)[C@H]3CC[C@]12C (some centres unmarked) | 107 to 110 °C | 
8 | CC1CCC(C(C)C)C(O)C1 (single isomer, unassigned; (-)) [(−)-menthol] |  | antimicrobial activity (bacteria): known to possess antimicrobial activity
9 | CC(C)[C@@H]1CC[C@@H](C)C[C@H]1OC(=O)NCCc1ccccc1 [Compound 2a, (1R, 2 S, 5R)-2-isopropyl-5-methylcyclohexyl phenethylcarbamate] | 84 to 86 °C | 
10 | CCOC(=O)NCCc1ccccc1 [Compound 2d, ethyl N-(2-phenethyl) carbamate] |  | % Inhibition (200 μM 2d) of biofilm formation [1]: 52.0%; % Inhibition (200 μM 2d) of biofilm formation ([2]; 200 μM, MRSA): 68.1%; % Inhibition (200 μM 2d) of biofilm formation (E. coli): 40.8%; % Inhibition (200 μM 2d) of biofilm formation (S. epidermidis): 63.1%; antibiofilm activity against Rhodospirillum salexigens (R. salexigens [3]): moderate antibiofilm activity; % Inhibition (200 μM 2d) of biofilm formation (R. salexigens [4]): 59.7%; % Inhibition (200 μM 2d) of biofilm formation [5]: 80.2%
11 | CCNC(=O)NCCc1ccccc1 [Compound 2g, 1-ethyl-3-phenethylurea] | 75 to 77 °C | 
12 | CCNC(=S)NCCc1ccccc1 [Compound 2h, 1-ethyl-3-phenethylthiourea] | 56 to 58 °C | 
13 | CC(C)[C@@H]1CC[C@@H](C)C[C@H]1OC(=O)NC1Cc2ccccc2C1 [Compound 3a, (1R, 2 S, 5R)-2-isopropyl-5-methylcyclohexyl 2,3-dihydro-1H-inden-2-ylcarbamate] | 167 to 170 °C | 
14 | CCSC(=O)NC1Cc2ccccc2C1 [Compound 3b, S-ethyl 2,3-dihydro-1H-inden-2-ylcarbamothioate] | 107 to 110 °C | 
15 | O=C(NC1Cc2ccccc2C1)OCc1ccccc1 [Compound 3c, benzyl 2,3-dihydro-1H-inden-2-ylcarbamate] | 159 to 161 °C | 
16 | CC(C)(C)OC(=O)NC1Cc2ccccc2C1 [Compound 3e, tert-butyl 2,3-dihydro-1H-inden-2-ylcarbamate] | 51 to 53 °C | 
17 | CCNC(=O)NC1Cc2ccccc2C1 [Compound 3g, 1-(2,3-dihydro-1H-inden-2-yl)-3-ethylurea] | 117 °C | 
18 | CCNC(=S)NC1Cc2ccccc2C1 [Compound 3h, 1-(2,3-dihydro-1H-inden-2-yl)-3-ethylthiourea] | 87 to 91 °C | 
19 | CC(C)[C@@H]1CC[C@@H](C)C[C@H]1OC(=O)NCCCc1ccccc1 [Compound 4a, (1R, 2 S, 5R)-2-isopropyl-5-methylcyclohexyl 3-phenylpropylcarbamate] | 75 to 78 °C | 
20 | CCNC(=O)NCCCc1ccccc1 [Compound 4g, 1-ethyl-3-(3-phenylpropyl)urea] | 48 °C | 
21 | CCNC(=S)NCCCc1ccccc1 [Compound 4h, 1-ethyl-3-(3-phenylpropyl)thiourea] | 51 to 53 °C | 
22 | Cc1ccc(C(C)C)cc1O [carvacrol] |  | antimicrobial activity (bacteria): known to possess antimicrobial activity
23 | Cc1ccc(C(C)C)c(O)c1 [thymol] |  | antimicrobial activity (bacteria): known to possess antimicrobial activity

The next lines start with results.

Row | melting point | Structure (SMILES) | further results
24 | 64 to 66 °C | CC(C)(C)OC(=O)NCCn1nccn1 [Compound 5e, tert-butyl 2-(2H-1,2,3-triazol-2-yl)ethylcarbamate] | 
25 | 109 °C | CCNC(=O)NCCn1nccn1 [Compound 5g, 1-(2-(2H-1,2,3-triazol-2-yl)ethyl)-3-ethylurea] | 
26 | 91 to 93 °C | CCNC(=S)NCCn1nccn1 [Compound 5h, 1-(2-(2H-1,2,3-triazol-2-yl)ethyl)-3-ethylthiourea] | 
27 | 111 to 113 °C | CCNC(=O)N1CCc2ccccc21 [Compound 6g, N-ethylindoline-1-carboxamide] | 
28 | 88 to 91 °C | CCNC(=S)N1CCc2ccccc21 [Compound 6h, N-ethylindoline-1-carbothioamide] | 
29 | 55 to 57 °C | CCNC(=S)N1CCCc2ccccc21 [Compound 7h, N-ethyl-3,4-dihydroquinoline-1(2H)-carbothioamide] | 
30 | 70 to 73 °C | Nc1ccc(CCNC(=O)OCc2ccccc2)cc1 [Compound 8c, benzyl 4-aminophenethylcarbamate] | 
31 | 101 to 103 °C | CCNC(=O)NCCc1ccc(N)cc1 [Compound 8g, 1-(4-aminophenethyl)-3-ethylurea] | 
32 | 59 to 63 °C | CC(C)[C@@H]1CC[C@@H](C)C[C@H]1OC(=O)NCCc1ccccn1 [Compound 9a, (1R, 2 S, 5R)-2-isopropyl-5-methylcyclohexyl 2-(pyridin-2-yl)ethylcarbamate] | IC50 values against MRSA (in words) ([2]; refers to Tables 2 and 3, not given): lowest IC50 values; activity against 29213, 29740, and 25923 (in words) [6]: worked well
33 | 57 to 59 °C | CC(C)[C@H]1CC[C@H](C)C[C@@H]1OC(=O)NCCc1ccccn1 [Compound 9k, (1 S,2R, 5 S)-2-isopropyl-5-methylcyclohexyl 2-(pyridin-2-yl)ethylcarbamate] | 
34 | 68 to 70 °C | CCSC(=O)NCCc1c[nH]c2ccccc12 [Compound 10b, S-ethyl 2-(1H-indol-3-yl)ethylcarbamothioate] | 
35 | 109 to 112 °C | CCNC(=O)NCCc1c[nH]c2ccccc12 [Compound 10g, 1-(2-(1H-indol-3-yl)ethyl)-3-ethylurea] | 
36 | 104 to 106 °C | CC(C)[C@@H]1CC[C@@H](C)C[C@H]1OC(=O)NCCc1ccc(Br)cc1 [Compound 11a, (1R, 2 S, 5R)-2-isopropyl-5-methylcyclohexyl 4-bromophenethylcarbamate] | 
37 | 63 to 65 °C | CCOC(=O)NCCc1ccc(Br)cc1 [Compound 11d, ethyl 4-bromophenethylcarbamate] | 
38 | 137 to 139 °C | CCNC(=O)NCCc1ccc(Br)cc1 [Compound 11g, 1-(4-bromophenethyl)-3-ethylurea] | 
39 | 95 to 98 °C | COc1ccc(CCNC(=O)O[C@@H]2C[C@H](C)CC[C@H]2C(C)C)cc1 [Compound 12a, (1R, 2 S, 5R)-2-isopropyl-5-methylcyclohexyl 4-methoxyphenethylcarbamate] | 
